Publication PMC8162404, “Proteomimetic surface fragments distinguish targets by function” (Chemical Science, 2020)
Where two headings read alike, the source gives them in different places.

What was measured:
CaM [1] = target: T1, CaM (Bos taurus, UniProt P62157); test: Pull-down assay with immobilized protein and LSM libraries; assay type: binding, bovine; details: H14 library; 1:2 stoichiometry assumed; read-out: Surface mapping KD (apparent)
T1 construct: made in house; host or cells: E. coli BL21 (DE3)
How it was run: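 His-tagged protein immobilized on Co-NTA resin, equilibrated 30 min at room temperature with LSM sublibraries (64 members, […]), equimolar protein to total probe. CaM buffer: 20 mM HEPES pH 7.4, 150 mM NaCl, 5 mM CaCl2. Bound fractions from HPLC-MS loss of unbound probe versus protein-free resin control; Kd derived.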

RecQ-WH = target: T2, RecQ-WH (Escherichia coli, UniProt P15043); test: as above; design: species or system E. coli; details: 1:1 binding assumed, read-out: Surface mapping KD (apparent)
T2 construct: coding for residues 408– 523 of E. coli RecQ; made in house; host or cells: E. coli BL21(DE3)
T2 sequence (P15043 408-523): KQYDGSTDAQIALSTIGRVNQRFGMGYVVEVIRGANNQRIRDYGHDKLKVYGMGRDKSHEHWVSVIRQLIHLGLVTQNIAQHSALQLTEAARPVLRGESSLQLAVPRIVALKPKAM
Method: Pull-down assays with immobilized test proteins and foldameric LSM libraries were carried out. Proteins were equilibrated with LSM probes, and equilibrium bound fractions (FB) were determined from the unbound fractions measured by HPLC-MS methods. Hits were corrected with background binding of the resin. The protocol allowed all binding events to equilibrate irrespective of affinity, specificity, and binding kinetics. This was essential to judge overall druggability and promiscuity. Importantly, the concentration of protein and the total concentration of foldameric LSMs were equimolar, which minimized competition between the probes. This experimental setup approximated independent binding of individual library members. Results were visualized as heat maps of dissociation constants (Fig. 3).
Pull-down assay and data analysis
Pull-down assay. LSM sublibraries were screened separately as previously described.(2) Experiments were performed in the following buffers: (i) 20 mM pH 7.4 HEPES, 150 mM NaCl, 5 mM CaCl2 for CaM; (ii) 50 mM pH 7.4 HEPES, 150 mM NaCl, 1 mM TCEP, 1 mM CaCl2 for S100 proteins; (iii) 20 mM pH 7.4 HEPES, 150 mM NaCl, 1 mM TCEP for Gal-1 and (iv) 20 mM pH 7.4 HEPES, 150 mM NaCl for RecQ-WH. Assays were performed in paper filter spin cups (Thermo Scientific) with sample volumes of 100 µl. Hexahistidine-tagged proteins were immobilized on previously washed Co-NTA resin (TALON, Takara Bio USA, Inc., Mountain View, CA) in 64 µM final concentration. LSM sublibrary was added, in which each of the 64 library members were used at a concentration of 1 µM. Samples were incubated at room temperature for 30 min with shaking at 100 rpm. Then, samples were centrifuged at 1000 rpm for 2 min and washed with 100 µl pull-down buffer to remove unbound compounds.
The control experiments were performed using the same compounds and the resin but without the immobilized protein. In case of competitive assays, competitor peptides were added to LSM sublibrary samples in 200 µM final concentration. In the case of Gal-1, lactose (competitor) was used in a concentration of 10 mM. Experiments were performed at least twice. Mean […]
LC-MS methods and parameters. HPLC/ESI-MS analysis was used to characterize the samples from the pull-down assay. LC-MS analysis was performed with a Thermo Scientific Dionex UltiMate 3000 HPLC system interfaced to an LTQ ion trap mass spectrometer (Thermo Electron Corp., San Jose, CA, USA). Samples were injected onto an Aeris Widepore XB-C18 (250 x 4.6 mm) analytical HPLC column using gradient elution 5-80 % solution B during 25 minutes. For pull-down samples, eluent composition was 0.1% acetic acid in distilled water (Solution A) and 0.1% acetic acid in acetonitrile (solution B). Mass spectra were acquired in full scan mode from 200 to 2000 m/z range. For overlapping peaks, selective reaction monitoring (SRM) was […]
MS data analysis. Thermo Xcalibur 2.2 software was used for peak identification and integration. The majority of the foldameric fragments could be resolved independently via HPLC-MS/MS measurements based on molecular weight, MS fragmentation pattern and retention time. Peaks of some foldamers with β3-hIle or β3-hLeu in position R2 could not be resolved, these were integrated and averaged. In the processing method, each sample component was associated to a chromatographic peak based on previously identified mass (m/z) and retention time (ref (2) and Table S7-10). Using ICIS peak detection algorithm, the general detection and integration criteria were: smoothing points: 5, baseline window: 80, area noise factor: 5, peak noise factor: 10. Using these processing setups, all raw data files were reprocessed together and analyzed. Errors in peak identification during the automatic processing were corrected manually.
Calculation of the discussed parameters
1. Bound fractions (FB.) were calculated from the HPLC-MS intensity loss of the LSM probes compared to the control where no protein was immobilized to the resin: […]

Gal-1 [2] = target: T3, Gal-1 (Homo sapiens, UniProt P09382); test: as above; assay type: binding; details: 1:1 binding assumed, read-out: Surface mapping KD (apparent)
T3 construct: made in house; host or cells: E. coli BL21(DE3)
T3 sequence (P09382 whole entry): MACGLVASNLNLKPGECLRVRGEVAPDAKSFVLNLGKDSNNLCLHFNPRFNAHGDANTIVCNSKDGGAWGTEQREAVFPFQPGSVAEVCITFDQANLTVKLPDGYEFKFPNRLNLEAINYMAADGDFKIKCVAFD
How it was run: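 His-tagged protein immobilized on Co-NTA resin (64 µM) in 20 mM HEPES pH 7.4, 150 mM NaCl, equilibrated 30 min at room temperature with foldamer LSM sublibraries at equimolar total concentration. Unbound fractions quantified by HPLC-MS versus protein-free resin control; apparent KD assumes 1:1 binding.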

S100B [3] = target: T4, S100B (Homo sapiens, UniProt P04271); test: as above; assay type: binding; details: 1:1 binding assumed, read-out: Surface mapping KD (apparent)
T4 construct: made in house; host or cells: Escherichia coli BL21(DE3)
T4 sequence (P04271 1-92): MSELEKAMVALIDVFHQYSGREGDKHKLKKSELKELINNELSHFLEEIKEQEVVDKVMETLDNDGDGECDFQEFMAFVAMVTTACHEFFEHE
How it was run: (§1)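 Buffers were HEPES pH 7.4 with 150 mM NaCl, plus 1 mM TCEP and 1 mM CaCl2 (50 mM HEPES) for S100A4 and S100B, 1 mM TCEP for Gal-1, and no additive for RecQ-WH. Immobilized protein at 64 µM was equilibrated 30 min with the LSM sublibrary, and unbound probes were measured by LC-MS.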

CaM [4] = target: T1, CaM; test: Competition pull-down with native ligand TRPV1-Ct15; assay type: binding, bovine; details: H14 library; competitor peptide 200 µM; read-out: Surface mapping KD (apparent), competition
S100B [5] = target: T4, S100B; test: Competition pull-down with native ligand RSK1 (689–735); assay type: binding; details: H14 library; competitor peptide 200 µM; read-out: Surface mapping KD (apparent), competition
Gal-1 [6] = target: T3, Gal-1; test: Competition pull-down with lactose; assay type: binding; details: H14 library; lactose 10 mM; read-out: Surface mapping KD (apparent), competition
How it was run: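 His6-tagged proteins immobilized on Co-NTA resin at 64 µM final with 64-member LSM foldamer sublibraries (1 M each, as printed) in pH 7.4 HEPES/NaCl buffers (Ca2+/TCEP per target), 30 min RT; competitor peptides 200 µM final, lactose 10 mM for Gal-1. Bound fractions from LC-MS loss vs protein-free resin; KD assuming 1:1 binding.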

S100A4 = target: T5, S100A4 (Homo sapiens, UniProt P26447); test: Pull-down assay with immobilized protein and LSM libraries; assay type: binding; details: H14 library; 1:1 binding assumed; read-out: Surface mapping KD (apparent)
T5 construct: made in house; host or cells: Escherichia coli BL21(DE3)
T5 sequence (P26447 whole entry): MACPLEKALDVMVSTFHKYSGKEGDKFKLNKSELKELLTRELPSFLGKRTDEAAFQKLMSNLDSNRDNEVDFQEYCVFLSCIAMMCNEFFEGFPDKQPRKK
How it was run: as §1

SMILES	Kd (CaM [1])	Kd (RecQ-WH; H14 library)	Kd (Gal-1 [2]; H14 library)	Kd (CaM [4])	Kd (S100B [5])	Kd (Gal-1 [6])	other results
NC(=O)[C@H]1CCCC[C@@H]1NC(=O)C[C@H](CC(=O)O)NC(=O)[C@H]1CCCC[C@@H]1NC(=O)[C@H]1CCCC[C@@H]1NC(=O)C[C@H](Cc1ccccc1)NC(=O)[C@H]1CCCC[C@@H]1N [H14 FD]	489 µM	193 µM					
CC(C)C[C@@H](CC(=O)N[C@H]1CCCC[C@@H]1C(N)=O)NC(=O)[C@H]1CCCC[C@@H]1NC(=O)[C@H]1CCCC[C@@H]1NC(=O)C[C@H](CCC(=O)O)NC(=O)[C@H]1CCCC[C@@H]1N [H14 EL]		444 µM					
CC[C@H](C)[C@@H](CC(=O)N[C@H]1CCCC[C@@H]1C(N)=O)NC(=O)[C@H]1CCCC[C@@H]1NC(=O)[C@H]1CCCC[C@@H]1NC(=O)C[C@H](CCC(=O)O)NC(=O)[C@H]1CCCC[C@@H]1N [H14 EI]		444 µM					
NC(=O)[C@H]1CCCC[C@@H]1NC(=O)C[C@H](CCC(=O)O)NC(=O)[C@H]1CCCC[C@@H]1NC(=O)[C@H]1CCCC[C@@H]1NC(=O)C[C@H](Cc1ccccc1)NC(=O)[C@H]1CCCC[C@@H]1N [H14 FE]	475 µM	328 µM					
NC(=O)CC[C@@H](CC(=O)N[C@H]1CCCC[C@@H]1C(=O)N[C@H]1CCCC[C@@H]1C(=O)N[C@H](CC(=O)N[C@H]1CCCC[C@@H]1C(N)=O)Cc1ccc(O)cc1)NC(=O)[C@H]1CCCC[C@@H]1N [H14 QY]	92 µM		174 µM	345 µM	188 µM	350 µM	Kd (S100B [3]; H14 library): 166 µM
NC(=O)CC[C@@H](CC(=O)N[C@H]1CCCC[C@@H]1C(N)=O)NC(=O)[C@H]1CCCC[C@@H]1NC(=O)[C@H]1CCCC[C@@H]1NC(=O)C[C@H](CO)NC(=O)[C@H]1CCCC[C@@H]1N [H14 SQ]	176 µM		275 µM	292 µM	445 µM	460 µM	
NCCCC[C@@H](CC(=O)N[C@H]1CCC[C@@H]1C(=O)N[C@H]1CCC[C@@H]1C(N)=O)NC(=O)[C@H]1CCC[C@@H]1NC(=O)[C@H]1CCC[C@@H]1NC(=O)C[C@H](Cc1c[nH]c2ccccc12)NC(=O)[C@H]1CCC[C@@H]1NC(=O)[C@H]1CCC[C@@H]1N [H12 WK]							Kd (Gal-1 [2]; H12 library): 266 µM; Kd (S100B [3]; H12 library): 26 µM; Kd (RecQ-WH; H12 library): 431 µM
CSCC[C@@H](CC(=O)N[C@H]1CCC[C@@H]1C(=O)N[C@H]1CCC[C@@H]1C(=O)N[C@@H](CCCNC(=N)N)CC(=O)N[C@H]1CCC[C@@H]1C(=O)N[C@H]1CCC[C@@H]1C(N)=O)NC(=O)[C@H]1CCC[C@@H]1NC(=O)[C@H]1CCC[C@@H]1N [H12 MR]							Kd (Gal-1 [2]; H12 library): 186 µM; Kd (S100B [3]; H12 library): 59 µM; Kd (RecQ-WH; H12 library): 435 µM
N=C(N)NCCC[C@@H](CC(=O)N[C@H]1CCCC[C@@H]1C(=O)N[C@H]1CCCC[C@@H]1C(=O)N[C@@H](CC(=O)O)CC(=O)N[C@H]1CCCC[C@@H]1C(N)=O)NC(=O)[C@H]1CCCC[C@@H]1N [H14 RD]		427 µM					
C[C@@H](O)[C@@H](CC(=O)N[C@H]1CCCC[C@@H]1C(=O)N[C@H]1CCCC[C@@H]1C(=O)N[C@@H](CC(N)=O)CC(=O)N[C@H]1CCCC[C@@H]1C(N)=O)NC(=O)[C@H]1CCCC[C@@H]1N [H14 TN]	176 µM		275 µM	292 µM	445 µM	460 µM	
CC(C)C[C@@H](CC(=O)N[C@H]1CCC[C@@H]1C(=O)N[C@H]1CCC[C@@H]1C(=O)N[C@@H](CCCCN)CC(=O)N[C@H]1CCC[C@@H]1C(=O)N[C@H]1CCC[C@@H]1C(N)=O)NC(=O)[C@H]1CCC[C@@H]1NC(=O)[C@H]1CCC[C@@H]1N [H12 LK]							Kd (S100B [3]; H12 library): 54 µM; Kd (RecQ-WH; H12 library): 434 µM
NC(=O)[C@H]1CCCC[C@@H]1NC(=O)C[C@H](Cc1ccc(O)cc1)NC(=O)[C@H]1CCCC[C@@H]1NC(=O)[C@H]1CCCC[C@@H]1NC(=O)C[C@H](CO)NC(=O)[C@H]1CCCC[C@@H]1N [H14 SY]	90 µM		318 µM	244 µM	109 µM	348 µM	Kd (S100B [3]; H14 library): 225 µM
NC(=O)[C@H]1CCC[C@@H]1NC(=O)[C@H]1CCC[C@@H]1NC(=O)C[C@H](CO)NC(=O)[C@H]1CCC[C@@H]1NC(=O)[C@H]1CCC[C@@H]1NC(=O)C[C@H](Cc1c[nH]c2ccccc12)NC(=O)[C@H]1CCC[C@@H]1NC(=O)[C@H]1CCC[C@@H]1N [H12 WS]							Kd (Gal-1 [2]; H12 library): 413 µM; Kd (S100B [3]; H12 library): 54 µM; Kd (RecQ-WH; H12 library): 420 µM
NC(=O)CC[C@@H](CC(=O)N[C@H]1CCCC[C@@H]1C(=O)N[C@H]1CCCC[C@@H]1C(=O)N[C@H](CC(=O)N[C@H]1CCCC[C@@H]1C(N)=O)Cc1ccccc1)NC(=O)[C@H]1CCCC[C@@H]1N [H14 QF]	39 µM		285 µM	211 µM	425 µM	319 µM	Kd (S100A4): 443 µM; Kd (S100B [3]; H14 library): 83 µM
NC(=O)C[C@@H](CC(=O)N[C@H]1CCCC[C@@H]1C(=O)N[C@H]1CCCC[C@@H]1C(=O)N[C@H](CC(=O)N[C@H]1CCCC[C@@H]1C(N)=O)Cc1ccc(O)cc1)NC(=O)[C@H]1CCCC[C@@H]1N [H14 NY]	109 µM		210 µM	270 µM	444 µM	337 µM	Kd (S100B [3]; H14 library): 193 µM
